From patent US11135193B2, “Composition containing monoacetyldiacylglycerol compound as active ingredient for preventing or treating asthma” (Enzychem Lifesciences Corporation, priority 2013, dated 2021)
Read-outs that look alike come from different tables or passages of the source. Marks after values point to notes of the source that are not given here.

How the values were obtained:
[1] = test system: interleukins (IL-4, IL-5 and IL-13); assay: Th2 cytokines in bronchoalveolar lavage fluid (ELISA), ovalbumin-induced asthma model; assay type: in vivo, mouse; settings: BALF
Protocol: (§1) 6-week-old female SPF (specific pathogen-free) Balb/c mice (average weight: 20 g) were purchased from Samtako (Korea). The animals were sufficiently fed with solid feed (antibiotic-free, Samyang Feed Co.) and water until the start point of the experiment, and acclimated at a temperature of 22±2° C., a humidity of 55±15%, and a 12-hr light/12-hr dark cycle for 1 week, and then used in experiments. After 1 week of the acclimation period as described above, the mice were sensitized by intraperitoneal administration of a suspension of 2 mg of aluminum oxide (A8222, Sigma-Aldrich, MO, USA) and 20 μg of ovalbumin (A5503, Sigma-Aldrich) in 200 μl of phosphate buffered saline at two-week intervals. During a period from day 21 to day 23 after the first intraperitoneal administration of ovalbumin, 1% ovalbumin was inhaled into the mice for 30 minutes using an ultrasonic nebulizer (NE-U12, Omron Corp., Japan). At 24 hours after the last ovalbumin challenge, the airway hyperresponsiveness of the mice was measured, and after 48 hours, the mice were anesthetized by intraperitoneal administration of Pentobarbital (50 mg/kg, Entobal, Hanil, Korea). Then, blood was collected through the saphenous vein, and the mice were subjected to tracheostomy. Next, each of the mice was subjected to bronchoalveolar lavage with a total of 1.4 ml of PBS to collect an analytical sample. […] The drug and the sample were administered orally during a period from day 18 to day 23 after the first ovalbumin […] (FIG. 1). Seven mice were used per group.
The production of interleukins (IL-4, IL-5 and IL-13) in the bronchoalveolar lavage fluid isolated from each mouse was measured using a commercially available enzyme-linked immunosorbent assay (ELISA) kit (R&D System, USA). The analysis of each cytokine was performed according to the manufacturer's instruction, and the absorbance at 450 nm was measured using an ELISA reader (Molecular Devices, USA).

[2] = test system: ovalbumin-induced asthma Balb/c mice; assay: Histopathological examination of lung tissue (H&E, PAS staining), ovalbumin-induced asthma model; assay type: in vivo, mouse
[3] = test system: serum IgE and ovalbumin-specific IgE; assay: Serum IgE and ovalbumin-specific IgE (ELISA), ovalbumin-induced asthma model; assay type: in vivo, mouse
Protocol: as §1
The blood collected through the saphenous vein was incubated at room temperature for 30 minutes, and then centrifuged (3000 rpm, 15 min) to obtain serum. For measurement of serum IgE and ovalbumin-specific IgE, ELISA was used. IgE was measured using commercially available IgE (Biolegend Ins., USA). For measurement of ovalbumin-specific IgE, in a 96-well flat bottom ELISA plate, ovalbumin was dissolved in 0.1 M NaHCO3 buffer (pH 8.3) at a concentration of 20 μg/mL and incubated at 4° C. for 16 hours. Next, PBS containing 1% bovine serum albumin (BSA) was added to suppress nonspecific reactions. The serum sample was diluted at 1:400, allowed to react at room temperature for 2 hours, and then washed with PBS containing 0.05% Tween 20. Horseradish peroxidase (HRP)-conjugated goat […] polyclonal A was diluted 4000-fold and allowed to react at room temperature for 1 hour, and then color development was performed using 3,3′5,5′-tetramethylbenzidine substrate.

[4] = test system: ovalbumin-induced asthma Balb/c mice; assay: Airway hyperresponsiveness (Pehn, plethysmography) in ovalbumin-induced asthma model; assay type: in vivo, mouse
Protocol: as §1
To measure airway hyperresponsiveness that is one of the major features of asthma, one chamber plethysmography (All Medicus, Korea) was used. The degree of airway resistance was evaluated by measuring enhanced pause (Pehn). For measurement of Pehn, the basis value was measured in a normal breathing state, and then PBS was inhaled for 3 minutes using an ultrasonic nebulizer, after which the Pehn value was measured for 3 minutes.

sepsis animal model = settings: cecal-ligation-puncture sepsis model; cited from earlier work
[5] = test system: ovalbumin-induced asthma Balb/c mice; assay: Inflammatory cell count in bronchoalveolar lavage fluid, ovalbumin-induced asthma model; assay type: in vivo, mouse; settings: BALF
Protocol: as §1
An increase in the number of eosinophils is one of the major features of asthma. Thus, in order to measure the number of eosinophils, the following experiment was performed. The bronchoalveolar lavage fluid from each mouse was stained with trypan blue immediately after collection, and the number of total cells (excluding dead cells) was calculated using a hemocytometer.

EL-4 cells = settings: mouse, 24 h
Protocol: EL-4 cells that are mouse T lymphoma cells were suspended in 10% fetal bovine serum-containing RPMI medium (Gibco) at a concentration of 5×10^4 cells/ml, and 100 μl of the cell suspension was seeded into each well of a 96-well plate and cultured for 12 hours. Next, the cell culture was treated with monoacetyldiacylglycerol (MADG) compounds at the concentrations shown in Table 1 below, and was then additionally cultured for 24 hours. Next, according to the instruction provided in a CCK-8 kit (Dojindo) capable of counting cells, 10 μl of CCK-8 solution was added to the kit and allowed to react for 30 minutes to 4 hours, and then the absorbance (OD) at 570 nm was measured. In equation 1, the negative control group indicates a cell culture treated with 0.2% DMSO. […] Cell viability (%)=[(OD 570 nm value of MADC-treated group)/(OD 570 nm value of negative control group)]×100 Equation 1

For CCCCC/C=C\C/C=C\CCCCCCCC(=O)OC(COC(C)=O)COC(=O)CCCCCCCCCCCCCCC (stereo not drawn) [EC-18, 1-palmitoyl-2-linoleoyl-3-acetylglycerol], the “secretion of IL-4 compared to asthma-induced group” value [1] was “significantly decreased”, the “secretion of IL-5 compared to asthma-induced group” value [1] was “significantly decreased” and the “secretion of IL-13 compared to asthma-induced group” value [1] was “significantly decreased”. For the same molecule, the “Th2 cytokines, IL-4” value ([1]; 30 mg/kg oral) was 17.89 ± 3.46 pg/mL, the “Th2 cytokines, IL-5” value ([1]; 30 mg/kg oral) was 24.12 ± 3.07 pg/mL and the “Th2 cytokines, IL-13” value ([1]; 30 mg/kg oral) was 97.27 ± 12.80 pg/mL. For the same molecule, the “Th2 cytokines, IL-4” value ([1]; 60 mg/kg oral) was 17.09 ± 3.08 pg/mL, the “Th2 cytokines, IL-5” value ([1]; 60 mg/kg oral) was 25.02 ± 2.91 pg/mL and the “Th2 cytokines, IL-13” value ([1]; 60 mg/kg oral) was 81.10 ± 20.46 pg/mL. For the same molecule, the “infiltration of inflammatory cells around the bronchi and blood vessels” value ([2]; H&E staining) was “decrease”, the “mucus secretion from goblet cells of the bronchial epithelium” value ([2]; PAS staining) was “significantly decreased” and the “ovalbumin-specific IgE compared to asthma-induced group” value [3] was “significantly decreased”. The “serum IgE compared to asthma-induced group” value [3] was “significantly decreased”, the IgE ([3]; 30 mg/kg oral) was 2.35 ± 0.38 µg/mL and the “OVA specific IgE” value ([3]; 30 mg/kg oral) was 295.36 ± 77.93 µg/mL. For the same molecule, the IgE ([3]; 60 mg/kg oral) was 2.27 ± 0.46 µg/mL, the “OVA specific IgE” value ([3]; 60 mg/kg oral) was 287.79 ± 69.53 µg/mL and the Pehn value ([4]; methacholine 0 mg/mL, 30 mg/kg oral) was 0.465 ± 0.08. It also gave a Pehn value ([4]; methacholine 0 mg/mL, 60 mg/kg oral) of 0.436 ± 0.08, a Pehn value ([4]; methacholine 12.5 mg/mL, 30 mg/kg oral) of 1.179 ± 0.49 and a Pehn value ([4]; methacholine 12.5 mg/mL, 60 mg/kg oral) of 0.778 ± 0.15. The Pehn value ([4]; methacholine 25 mg/mL, 30 mg/kg oral) was 2.914 ± 0.67, the Pehn value ([4]; methacholine 25 mg/mL, 60 mg/kg oral) was 2.436 ± 0.68 and the Pehn value ([4]; methacholine 50 mg/mL, 30 mg/kg oral) was 4.098 ± 0.78. The Pehn value ([4]; methacholine 50 mg/mL, 60 mg/kg oral) was 3.887 ± 0.59, the “airway hyperresponsiveness / Pehn value compared to asthma-induced group” value ([4]; montelukast 30 mg/kg, EC-18 30 mg/kg and 60 mg/kg) was “significantly decreased” and the “survivability ratio of animals” value (sepsis animal model) was “Increases”. For the same molecule, the “Inflammatory cell number, Eosinophils” value ([5]; 30 mg/kg oral) was 93 ± 16.4* 10^5 per mouse, the “Inflammatory cell number, Lymphocytes” value ([5]; 30 mg/kg oral) was 16 ± 8.7 10^5 per mouse and the “Inflammatory cell number, Macrophages” value ([5]; 30 mg/kg oral) was 82 ± 25.5* 10^5 per mouse. The “Inflammatory cell number, Neutrophils” value ([5]; 30 mg/kg oral) was 15 ± 8.4 10^5 per mouse, the “Inflammatory cell number, Total cells” value ([5]; 30 mg/kg oral) was 221 ± 33.5* 10^5 per mouse and the “Inflammatory cell number, Eosinophils” value ([5]; 60 mg/kg oral) was 112 ± 18.7* 10^5 per mouse. The “Inflammatory cell number, Lymphocytes” value ([5]; 60 mg/kg oral) was 13 ± 8.7 10^5 per mouse, the “Inflammatory cell number, Macrophages” value ([5]; 60 mg/kg oral) was 113 ± 27.4 10^5 per mouse and the “Inflammatory cell number, Neutrophils” value ([5]; 60 mg/kg oral) was 12 ± 6.7 10^5 per mouse. For the same molecule, the “Inflammatory cell number, Total cells” value ([5]; 60 mg/kg oral) was 253 ± 12.8* 10^5 per mouse, the “number of eosinophils compared to asthma-induced group” value ([5]; groups administered with EC-18) was “decrease” and the “number of total inflammatory cells compared to asthma-induced group” value ([5]; groups administered with EC-18) was “significant decrease”. For the same molecule, the “EL-4 cell viability (%, mean ± SD)” value (EL-4 cells; 5 μg/ml) was 101.94 ± 1.47%, the “EL-4 cell viability (%, mean ± SD)” value (EL-4 cells; 10 μg/ml) was 97.54 ± 8.05% and the “EL-4 cell viability (%, mean ± SD)” value (EL-4 cells; 20 μg/ml) was 91.82 ± 3.48%. For the same molecule, the “EL-4 cell viability (%, mean ± SD)” value (EL-4 cells; 50 μg/ml) was 92.67 ± 3.43%, the “EL-4 cell viability (%, mean ± SD)” value (EL-4 cells; 100 μg/ml) was 95.29 ± 2.89% and the “EL-4 cell viability (%, mean ± SD)” value (EL-4 cells; 200 μg/ml) was 99.74 ± 6.14%.
